Experimental findings from patent US9963464B2, “Macrocyclic compounds” (Bayer Pharma Aktiengesellschaft, priority 2014, dated 2018) are described below.

One experiment deals with B16F10 cells. Kind of experiment: Proliferation assay B16F10. Format: cell-based, mouse. The settings on record: 4 days, crystal violet, read-out: Inhibition of B16F10 cell proliferation IC50. As for the experimental part: (§1) Cultivated tumour cells (HeLa, human cervical tumour cells, ATCC CCL-2; NCI-H460, human non-small cell lung carcinoma cells, ATCC HTB-177; A2780, human ovarian carcinoma cells, ECACC #93112519; DU 145, hormone-independent human prostate carcinoma cells, ATCC HTB-81; HeLa-MaTu-ADR, multidrug-resistant human cervical carcinoma cells, EPO-GmbH Berlin; Caco-2, human colorectal carcinoma cells, ATCC HTB-37; B16F10, mouse melanoma cells, ATCC CRL-6475) were plated at a density of 5,000 cells/well (DU145, HeLa-MaTu-ADR), 3,000 cells/well (NCI-H460, HeLa), 2,500 cells/well (A2780), 1,500 cells/well (Caco-2), or 1,000 cells/well (B16F10) in a 96-well multititer plate in 200 μL of their respective growth medium supplemented 10% fetal calf serum. After 24 hours, the cells of one plate (zero-point plate) were stained with crystal violet (see below), while the medium of the other plates was replaced by fresh culture medium (200 μl), to which the test substances were added in various concentrations (0 μM, as well as in the range of 0.001-10 μM). The cells were incubated for 4 days in the presence of test substances. Cell proliferation was determined by staining the cells with crystal violet: the cells were fixed by adding 20 μl/measuring point of an 11% glutaric aldehyde solution for 15 minutes at room temperature. After three washing cycles of the fixed cells with water, the plates were dried at room temperature. The cells were stained by adding 100 μl/measuring point of a 0.1% crystal violet solution (pH 3.0). After three washing cycles of the stained cells with water, the plates were dried at room temperature. The dye was dissolved by adding 100 μl/measuring point of a 10% acetic acid solution. The extinction was determined by photometry at a wavelength of 595 nm. The change of cell number, in percent, was calculated by normalization of the measured values to the extinction values of the zero-point plate (=0%) and the extinction of the untreated (0 μm) cells (=100%). The IC50 values (inhibitory concentration at 50% of maximal effect) were determined by means of a 4 parameter fit. Non-adherent MOLM-13 human acute myeloid leukemia cells (DSMZ ACC 554) were seeded at a density of 5,000 cells/well in a 96-well multititer plate in 100 μL of growth medium supplemented 10% fetal calf serum. After 24 hours, cell viability of one plate (zero-point plate) was determined with the Cell Titre-Glo Luminescent Cell Viability Assay (Promega), while 50 μL of test compound containing medium was added to the wells of the other plates (final concentrations in the range of 0.001-1 μM and DMSO controls). Cell viability was assessed after 72-hour exposure with the Cell Titre-Glo Luminescent Cell Viability Assay (Promega). IC50 values (inhibitory concentration at 50% of maximal effect) were determined by means of a 4 parameter fit on measurement data which were normalized to vehicle (DMSO) treated cells (=100%) and measurement readings taken immediately before compound exposure (=0%).

For the next experiment, the target named is T1, CDK9/CycT1 (Homo sapiens, UniProt P50750).
T1 construct: Recombinant full-length His-tagged human CDK9 and CycT1; His; purchased Invitrogen PV4131; host or cells: insect cells
T1 sequence (P50750 whole entry): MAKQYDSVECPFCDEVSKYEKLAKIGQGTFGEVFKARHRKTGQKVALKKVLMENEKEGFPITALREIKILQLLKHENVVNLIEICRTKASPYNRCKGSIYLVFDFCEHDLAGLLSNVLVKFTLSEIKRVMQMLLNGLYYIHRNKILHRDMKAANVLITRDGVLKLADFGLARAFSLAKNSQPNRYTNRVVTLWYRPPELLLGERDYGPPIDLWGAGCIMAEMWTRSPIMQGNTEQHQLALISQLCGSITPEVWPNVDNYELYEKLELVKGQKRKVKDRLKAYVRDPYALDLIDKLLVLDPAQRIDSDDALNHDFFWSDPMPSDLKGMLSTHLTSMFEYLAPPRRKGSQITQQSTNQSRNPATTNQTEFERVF
T1 sequence (O60563 whole entry partner): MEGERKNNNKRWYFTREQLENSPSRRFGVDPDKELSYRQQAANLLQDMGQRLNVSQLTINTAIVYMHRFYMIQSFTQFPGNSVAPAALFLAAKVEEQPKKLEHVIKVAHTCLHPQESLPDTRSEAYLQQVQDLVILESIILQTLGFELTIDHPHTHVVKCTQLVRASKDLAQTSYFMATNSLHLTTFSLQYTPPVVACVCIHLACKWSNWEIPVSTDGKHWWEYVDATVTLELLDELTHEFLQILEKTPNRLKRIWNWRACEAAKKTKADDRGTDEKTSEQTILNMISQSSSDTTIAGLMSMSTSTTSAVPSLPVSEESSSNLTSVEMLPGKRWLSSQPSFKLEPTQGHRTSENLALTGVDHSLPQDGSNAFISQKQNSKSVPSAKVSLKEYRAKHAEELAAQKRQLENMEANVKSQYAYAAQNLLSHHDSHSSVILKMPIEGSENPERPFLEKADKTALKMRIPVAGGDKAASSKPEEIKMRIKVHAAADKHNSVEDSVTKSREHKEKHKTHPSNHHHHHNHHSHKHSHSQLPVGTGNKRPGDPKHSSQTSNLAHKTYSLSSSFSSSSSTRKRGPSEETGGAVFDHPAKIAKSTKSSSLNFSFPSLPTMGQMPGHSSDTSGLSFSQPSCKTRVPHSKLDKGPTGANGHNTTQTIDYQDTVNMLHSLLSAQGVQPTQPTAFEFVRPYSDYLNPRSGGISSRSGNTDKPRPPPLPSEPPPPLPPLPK
The experiment in a line: CDK9/CycT1 high ATP kinase assay (TR-FRET, Method 1b). Type of experiment: biochemical. The settings on record: for IC50: Method 1b, 2 mM ATP; for Selectivity high ATP CDK9 over high ATP CDK2: IC50 (high ATP CDK2)/IC50 (high ATP CDK9): Methods 1b and 2b, minimal values where CDK9 IC50 is at the assay limit. As for the experimental part:
1b. CDK9/CycT1 High ATP Kinase Assay
CDK9/CycT1-inhibitory activity of compounds of the present invention at a high ATP concentration after preincubation of enzyme and test compounds was quantified employing the CDK9/CycT1 TR-FRET assay as described in the following paragraphs.
Recombinant full-length His-tagged human CDK9 and CycT1, expressed in insect cells and purified by Ni-NTA affinity chromatography, were purchase from Invitrogen (Cat. No PV4131). As substrate for the kinase reaction biotinylated peptide biotin-Ttds-YISPLKSPYKISEG (C-terminus in amid form) was used which can be purchased e.g. from the company JERINI peptide technologies (Berlin, Germany). For the assay 50 nl of a 100 fold concentrated solution of the test compound in DMSO was pipetted into a black low volume 384 well microtiter plate (Greiner Bio-One, Frickenhausen, Germany), 2 μl of a solution of CDK9/CycT1 in aqueous assay buffer [50 mM Tris/HCl pH 8.0, 10 mM MgCl2, 1.0 mM dithiothreitol, 0.1 mM sodium ortho-vanadate, 0.01% (v/v) Nonidet-P40 (Sigma)] were added and the mixture was incubated for 15 min at 22° C. to allow pre-binding of the test compounds to the enzyme before the start of the kinase reaction. […] The concentration of CDK9/CycT1 was adjusted depending of the activity of the enzyme lot and was chosen appropriate to have the assay in the linear range, typical concentrations were in the range of 0.5 μg/mL. The reaction was stopped by the addition of 5 μl of a solution of TR-FRET detection reagents (0.2 μM streptavidine-XL665 [Cisbio Bioassays, Codolet, France] and 1 nM anti-RB(pSer807/pSer811)-antibody from BD Pharmingen [#558389] and 1.2 nM LANCE EU-W1024 labeled anti-mouse IgG antibody [Perkin-Elmer, product no. AD0077]) in an aqueous EDTA-solution (100 mM EDTA, 0.2% (w/v) bovine serum albumin in 100 mM HEPES pH 7.5).
The resulting mixture was incubated 1 h at 22° C. to allow the formation of complex between the phosphorylated biotinylated peptide and the detection reagents. Subsequently the amount of phosphorylated substrate was evaluated by measurement of the resonance energy transfer from the Eu-chelate to the streptavidine-XL. Therefore, the fluorescence emissions at 620 nm and 665 nm after excitation at 350 nm was measured in a HTRF reader, e.g. a Rubystar (BMG Labtechnologies, Offenburg, Germany) or a Viewlux (Perkin-Elmer). The ratio of the emissions at 665 nm and at […] was taken as the measure for the amount of phosphorylated substrate. The data were normalised (enzyme reaction without inhibitor=0% inhibition, all other assay components but no enzyme=100% inhibition).
In general terms: In TR-FRET formats the signal depends on donor and acceptor labels being close together.

The subject of another experiment is HeLa cells. Kind of experiment: Proliferation assay HeLa. Format: cell-based, human. To be noted: 4 days, crystal violet, read-out: Inhibition of HeLa cell proliferation IC50. On the procedure: as §1

Read-outs that look alike come from different tables or passages of the source.

Take `CS(=N)(=O)Cc1cc2nc(c1)OCCCOc1cc(F)ccc1-c1cc(ncc1F)N2` (single isomer, unassigned; enantiomer 2) [Example 7, 15,19-Difluoro-8-[(S-methylsulfonimidoyl)methyl]-3,4-dihydro-2H,11H-10,6-(azeno)-12,16-(metheno)-1,5,11,13-benzodioxadiazacyclooctadecine; Enantiomer 2]: the IC50 in the experiment with B16F10 cells stood at 7 nM; on CDK9/CycT1, 2.6 nM; in the experiment on HeLa cells, 31 nM. Also, the “Selectivity high ATP CDK9 over high ATP CDK2: IC50 (high ATP CDK2)/IC50 (high ATP CDK9)” value (“Selectivity high ATP CDK9” for short) at CDK9/CycT1 came out at 19.5.

Turning to `CSCc1cc2cc(c1)OCCCOc1cc(F)ccc1-c1nc(ncc1F)N2` [Example 2, 15,19-Difluoro-8-[(methylsulfanyl)methyl]-3,4-dihydro-2H,11H-12,16-(azeno)-10,6-(metheno)-1,5,11,13-benzodioxadiazacyclooctadecine], the IC50 in the experiment on B16F10 cells (Mus musculus, B16-F10, 96 h) came out at 167 nM; at CDK9/CycT1 it was 4.3 nM; in the experiment with HeLa cells (Homo sapiens, HeLa, 96 h) it was 62 nM. At CDK9/CycT1, the “Selectivity high ATP CDK9” value came to 149.6.

For the compound `CSCc1cc2nc(c1)OCCCOc1cc(F)ccc1-c1cc(ncc1F)N2` [Example 3, 15,19-Difluoro-8-[(methylsulfanyl)methyl]-3,4-dihydro-2H,11H-10,6-(azeno)-12,16-(metheno)-1,5,11,13-benzodioxadiazacyclooctadecine], the IC50 in the experiment on B16F10 cells (Mus musculus, B16-F10, 96 h) came to 81 nM; on CDK9/CycT1 it was 4.6 nM; in the experiment on HeLa cells (Homo sapiens, HeLa, 96 h) it was 86 nM. Further, on CDK9/CycT1, the “Selectivity high ATP CDK9” value is recorded as 28.2.

On to `CS(=O)(=O)Cc1cc2nc(c1)OCCCOc1cc(F)ccc1-c1cc(ncc1F)N2` [Example 8, 15,19-difluoro-8-[(methylsulfonyl)methyl]-3,4-dihydro-2H,11H-10,6-(azeno)-12,16-(metheno)-1,5,11,13-benzodioxadiazacyclooctadecine], for which the IC50 with B16F10 cells (Mus musculus, B16-F10, 96 h) was 9 nM; at CDK9/CycT1, 2.3 nM; in the experiment on HeLa cells (Homo sapiens, HeLa, 96 h), 12 nM. The “Selectivity high ATP CDK9” value on CDK9/CycT1 came to 14.9.

With `CSCc1cc2nc(c1)OCCCCOc1cc(F)ccc1-c1cc(ncc1F)N2` [Example 12, 16,20-Difluoro-9-[(methylsulfanyl)methyl]-2,3,4,5-tetrahydro-12H-11,7-(azeno)-13,17-(metheno)-1,6,12,14-benzodioxadiazacyclononadecine], the IC50 in the experiment with B16F10 cells (Mus musculus, B16-F10, 96 h) came out at 343 nM; against CDK9/CycT1, 11.8 nM; in the experiment with HeLa cells (Homo sapiens, HeLa, 96 h), 281 nM. In addition, the “Selectivity high ATP CDK9” value at CDK9/CycT1 is on record as 75.7.
